According to ChEMBL document CHEMBL1201862, “PubChem BioAssay data set” (2004):
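In this assay, cells in 96-well plates receive the compound at five concentrations for 48 hours. Endpoints are linearly interpolated between the surrounding concentrations. GI50 is the concentration that inhibits growth by half.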 The source made the active and inactive calls. No stated cut-off is given here; in the data, active = GI50 up to about 1.1 µM and inactive = higher.

Experiments:
Experiment in all cases: NCI-60 cell line screen, 48 h
[1] = test system: 786-0
[2] = test system: A498
[3] = test system: A549
[4] = test system: ACHN
[5] = test system: CAKI-1
[6] = test system: CCRF-CEM
[7] = test system: COLO 205
[8] = test system: DLD-1
[9] = test system: DMS-114
[10] = test system: DMS-273
[11] = test system: HCC 2998
[12] = test system: HCT-116
[13] = test system: HCT-15
[14] = test system: HL-60
[15] = test system: HOP-18
[16] = test system: HOP-62
[17] = test system: HOP-92
[18] = test system: HT-29
[19] = test system: IGROV-1
[20] = test system: K562
[21] = test system: KM-20L2
[22] = test system: KM12
[23] = test system: LOX IMVI
[24] = test system: M14
[25] = test system: M19-MEL
[26] = test system: MOLT-4
[27] = test system: Malme-3M
[28] = test system: NCI-H226
[29] = test system: NCI-H23
[30] = test system: NCI-H460
[31] = test system: NCI-H522
[32] = test system: OVCAR-3
[33] = test system: OVCAR-4
[34] = test system: OVCAR-5
[35] = test system: OVCAR-8
[36] = test system: RPMI-8226
[37] = test system: SF-268
[38] = test system: SF-295
[39] = test system: SF-539
[40] = test system: SK-MEL-28
[41] = test system: SK-MEL-2
[42] = test system: SK-MEL-5
[43] = test system: SK-OV-3
[44] = test system: SN12C
[45] = test system: SNB-19
[46] = test system: SNB-75
[47] = test system: SNB-78
[48] = test system: SR
[49] = test system: SW-620
[50] = test system: TK-10
[51] = test system: U-251
[52] = test system: UACC-257
[53] = test system: UACC-62
[54] = test system: UO-31
[55] = test system: XF498
[56] = test system: EKVX
[57] = test system: RXF 393

Measured: GI50

Nc1nc(SCCNC(=O)CCc2ccc(O)cc2)nc2c1ncn2C1OC(CO)C(O)C1O (stereo unspecified)
inactive: [1] > 203 µM | [2] > 203 µM | [3] > 203 µM | [4] > 203 µM | [5] > 203 µM | [6] > 203 µM | [7] > 203 µM | [8] > 203 µM | [9] > 203 µM | [10] > 203 µM | [11] > 203 µM | [12] > 203 µM | [14] > 203 µM | [15] > 203 µM | [16] > 203 µM | [17] > 203 µM | [18] > 203 µM | [19] > 203 µM | [20] > 203 µM | [21] > 203 µM | [22] > 203 µM | [23] > 203 µM | [24] > 203 µM | [25] > 203 µM | [26] > 203 µM | [27] > 203 µM | [28] > 203 µM | [29] > 203 µM | [30] > 203 µM | [31] > 203 µM | [32] > 203 µM | [33] > 203 µM | [34] > 203 µM | [35] > 203 µM | [36] > 203 µM | [37] > 203 µM | [38] > 203 µM | [39] > 203 µM | [40] > 203 µM | [41] > 203 µM | [42] > 203 µM | [43] > 203 µM | [44] > 203 µM | [45] > 203 µM | [46] > 203 µM | [47] > 203 µM | [48] > 203 µM | [49] > 203 µM | [50] > 203 µM | [51] > 203 µM | [52] > 203 µM | [53] > 203 µM | [54] > 203 µM | [55] > 203 µM
> 203 µM: [13]

CCOC(=O)C1=C(O)C(=O)c2ccoc2C1=O
> 100 µM: [13]
inactive: [1] > 100 µM | [2] > 100 µM | [3] > 100 µM | [4] > 100 µM | [5] > 100 µM | [6] > 100 µM | [7] > 100 µM | [9] > 100 µM | [10] > 100 µM | [56] > 100 µM | [11] > 100 µM | [12] > 100 µM | [14] > 100 µM | [15] > 100 µM | [16] > 100 µM | [17] > 100 µM | [18] > 100 µM | [19] > 100 µM | [20] > 100 µM | [21] > 100 µM | [22] > 100 µM | [23] > 100 µM | [24] > 100 µM | [25] > 100 µM | [26] > 100 µM | [27] > 100 µM | [28] > 100 µM | [29] > 100 µM | [30] > 100 µM | [31] > 100 µM | [32] > 100 µM | [33] > 100 µM | [34] > 100 µM | [35] > 100 µM | [36] > 100 µM | [57] > 100 µM | [37] > 100 µM | [38] > 100 µM | [39] > 100 µM | [40] > 100 µM | [41] > 100 µM | [42] > 100 µM | [43] > 100 µM | [44] > 100 µM | [45] > 100 µM | [46] > 100 µM | [47] > 100 µM | [48] > 100 µM | [49] > 100 µM | [50] > 100 µM | [51] > 100 µM | [52] > 100 µM | [53] > 100 µM | [54] > 100 µM | [55] > 100 µM

COc1ccc(C2=NC(C)(C)CO2)cc1
> 100 µM: [13]
inactive: [1] > 100 µM | [2] > 100 µM | [3] > 100 µM | [4] > 100 µM | [5] > 100 µM | [6] > 100 µM | [7] > 100 µM | [8] > 100 µM | [9] > 100 µM | [10] > 100 µM | [56] > 100 µM | [12] > 100 µM | [14] > 100 µM | [15] > 100 µM | [16] > 100 µM | [17] > 100 µM | [18] > 100 µM | [19] > 100 µM | [20] > 100 µM | [21] > 100 µM | [22] > 100 µM | [23] 82.6 µM | [25] > 100 µM | [27] > 100 µM | [29] > 100 µM | [30] > 100 µM | [32] > 100 µM | [33] > 100 µM | [34] > 100 µM | [35] > 100 µM | [36] > 100 µM | [57] > 100 µM | [37] > 100 µM | [38] > 100 µM | [39] > 100 µM | [40] > 100 µM | [41] > 100 µM | [42] > 100 µM | [44] > 100 µM | [45] > 100 µM | [46] > 100 µM | [47] > 100 µM | [48] > 100 µM | [49] > 100 µM | [50] > 100 µM | [51] > 100 µM | [52] > 100 µM | [53] > 100 µM | [55] > 100 µM
